The values that follow come from patent US6172064A, “Formamides as therapeutic agents” (Glaxo Wellcome Inc., priority 1999, dated 2001).

SMILES strings stand for the structures. pIC50, pKi: −log10 of the molar value. Read-outs that look alike come from different tables or passages of the source.

For experiment [1], the system named is Colo 205 Human Colon. Put plainly: Xenograft in vivo assay, Colo 205. As to conditions: female NU/NU mice, p.o. once a day, 14 days, 30 mg/kg and 90 mg/kg. How it is done: (§1) Female NU/NU mice with a weight of 21±2 g are weighed and used. Control and test animals are injected subcutaneously in the axillary region with a suspension of 2×10^6 viable tumor cells in 200 uL in PBS±matrigel on day 0. Tumors are allowed to grow for 10 to 14 days prior to drug administration. Doses of test drug are given on a mg/kg basis according to the mean body weight for each cage. For each drug, two doses are used, 30 mg/kg and 90 mg/kg, and are administered by p.o. route once a day over a 14 day time span. Tumor weight is calculated from two perpendicular caliper measurements of the tumor using the formula, tumor weight=length×width2.div.2 in millimeters. For each animal, tumor weight is monitored over the course of the experiment, and expressed as the percent of the tumor's weight. For each group, the mean increase in tumor weight over the course of the experiment is calculated (tumor weightday […]-tumor weightday 14=≈tumor weight) and the results expressed as percent inhibition of tumor growth with respect to the control group [1-(≈tumor weight treated group/(≈tumor weight control group)]×100. Results are presented in Table 4. The criterion for antitumor activity is 25% inhibition of tumor growth after 2 weeks of dosing (day 14).

Experiment [2] deals with Lewis Lung M27 Murine Lung. Put plainly: Xenograft in vivo assay, Lewis Lung M27. As to conditions: female NU/NU mice, p.o. once a day, 14 days, 30 mg/kg and 90 mg/kg. How it is done: as §1
Experiment [3] has as its target 50 kD truncated gelatinase B (MMP-9). Nature of the experiment: Matrix Metalloprotease Inhibition, Gelatinase B. In kind it is biochemical. As to conditions: 100 pM enzyme, 10 μM fluorogenic substrate, pH=7.6; approximate IC50 equivalent to Ki ([S]<<Km). Here is the method:
(§2) The potency of compounds of the invention as inhibitors of 19 kD truncated collagenase-1 (MMP-1), 20 kD truncated collagenase-3 (MMP-13), stromelysin-1 (MMP-3), and 50 kD truncated gelatinase B (MMP-9) is determined according to the general procedure of Bickett et. al. (Anal. Biochem. 1993, 212, 58-64) using the fluorogenic substrate, DNP-Pro-Cha-Gly-Cys(Me)-His-Ala-Lys(NMA)--NH2 (DNP=2,4-dinitrophenyl,NMA=N-methylanthranilic acid). Assays are conducted in a total volume of 0.180 mL assay buffer (200 mM NaCl, 50 mM Tris, 5 mM CaCl2, 10 μM ZnSO4, 0.005% Brij 35, pH=7.6) in each well of a black 96 well microtiter plate. 19 kD collagenase-1, 20 kD collagenase-3, stromelysin-1,and 50 kD gelatinase B concentrations are adjusted to 500 pM, 30 pM, 5 nM, and 100 pM, respectively. A dose response is generated using an eleven-point, 3-fold serial dilution with initial starting test compound concentrations of 100, 10, or 1 μM. Inhibitor and enzyme reactions are incubated for 30 minutes at ambient temperature and then initiated with 10 μM fluorogenic substrate (above). The product formation is measured at Excitation343 /Emission450 nm after 45-180 minutes using a Fluostar SLT fluorescence analyzer. Percent inhibition is calculated at each inhibitor concentration and the data were plotted using standard curve fitting programs. Approximate IC50 values were determined from these curves. Assays were run at low substrate concentration ([S]<<Km) such that the calculated IC50 values are equivalent to Ki within experimental error.

Experiment [4] concerns the target 20 kD truncated collagenase-3 (MMP-13). Nature of the experiment: Matrix Metalloprotease Inhibition, Collagenase-3. In kind it is biochemical. As to conditions: 30 pM enzyme, 10 μM fluorogenic substrate, pH=7.6; approximate IC50 equivalent to Ki ([S]<<Km). Here is the method: as §2
In experiment [5] the test system is TNFα release from LPS/PMA-stimulated MonoMac 6 cells. Put plainly: Cell-Based TNFα Release Inhibition. As to conditions: Homo sapiens, MONO-MAC-6, LPS/PMA stimulation, 2 hours, 37° C. Here is the method:
The potency of compounds of the invention as inhibitors of release of soluble tumor necrosis factor α from stimulated monocytes in vitro is determined as follows: LPS/PMA solution for assay consisting of a) 4 μL of 5 mg/mL LPS stock and b) 6 μL of 10 mg/mL PMA stock are added to 500 μL of medium (RPMI 1640 (Gibco)+10% FBS+penicillin/streptomycin+1-glutamine). This solution is then diluted 1:1000 (40 ng/mL and 120 ng/mL) for use later in the assay. Compounds (10 mM) are serially diluted 1:3 in DMSO. Compound dilutions (20 μL) are added to a sterile round bottom 96 well plate (20 μL:200 μL total volume=1:10 for final concentrations of […] for test compounds). MonoMac 6 cell suspension (130 μL, 1.5×10^6 cells/mL) is then added to each well resulting in 2×10^5 cells/well. LPS/PMA (50 μL) solution is then added to each well to begin stimulation (final concentrations of […] and 30 ng/mL respectively). The plate is incubated at 37° C. for 2 hours then spun at 1,500 rpm for 3 minutes to pellet cells. The supernatant (120 μL/well) is removed to a new round bottom 96 well plate and diluted 1:10 in PBS. Then, 20 μL of the supernatant is transferred to a Cistron TNFα ELISA plate and processed according to the manufacturer's instructions to quantitate levels of TNFα. […]

Experiment [6] addresses T1, TNFα converting enzyme (membrane preparation from MonoMac 6 cells) (Homo sapiens, UniProt P78536).
T1 construct: Membrane preparation from MonoMac 6 cells; endogenous in cells; host or cells: MonoMac 6 cells (membrane preparation, subfractionated extract)
Nature of the experiment: TNFα Converting Enzyme Inhibition. It is filed as biochemical. How it is done: The potency of compounds of the invention as inhibitors of cell-free tumor necrosis factor α converting enzyme is determined as follows: Membrane preparation from MonoMac 6 cells (subfractionated extract from equivalent of 6×10^6 cells per 60 μl assay) is incubated for 1 hr with 200 nM radiolabeled substrate (Biotin-SPLAQAVRSSSRT-(^3 H)P-S--NH2, 4.1 Ci/mmol, ref #0935 from Zeneca) in 10 mM hepes buffer, 250 mM sucrose, pH=7.5. The reaction is quenched by addition of streptavidin SPA beads (Amersham RPNQ0006), with excess binding capacity relative to substrate, suspended in 250 mM EDTA, pH=8.0. Binding is complete within 15 minutes and plates are counted in a Wallac 1450 Microbeta liquid scintillation counter. Percent inhibition is calculated at each inhibitor concentration and the data were plotted using standard curve fitting programs. Approximate IC50 values were determined from these curves. Assays were run at low substrate concentration ([S]<<Km) such that the calculated IC50 values are equivalent to Ki within experimental error.

Experiment [7] deals with SW 620 Human Colon. Nature of the experiment: Xenograft in vivo assay, SW 620. Particulars: female NU/NU mice, p.o. once a day, 14 days, 30 mg/kg and 90 mg/kg. Here is the method:
as §1

Experiment [8] relates to A549 Human Lung. Put plainly: Xenograft in vivo assay, A549. Particulars: female NU/NU mice, p.o. once a day, 14 days, 30 mg/kg and 90 mg/kg. How it is done: as §1
Experiment [9] deals with Mat Ly Lu Murine Prostate. Nature of the experiment: Xenograft in vivo assay, Mat Ly Lu. Particulars: female NU/NU mice, p.o. once a day, 14 days, 30 mg/kg and 90 mg/kg. How it is done: as §1
Experiment [10] concerns the target stromelysin-1 (MMP-3) (Homo sapiens, UniProt P08254). Put plainly: Matrix Metalloprotease Inhibition, Stromelysin-1. Particulars: 5 nM enzyme, 10 μM fluorogenic substrate, pH=7.6; approximate IC50 equivalent to Ki ([S]<<Km). In kind it is biochemical. Here is the method: as §2
In experiment [11] the test system is B16B6 Murine Melanoma. Put plainly: Xenograft in vivo assay, B16B6. As to conditions: female NU/NU mice, p.o. once a day, 14 days, 30 mg/kg and 90 mg/kg. Here is the method:
as §1

Experiment [12] concerns the target T2, 19 kD truncated collagenase-1 (MMP-1) (Homo sapiens, UniProt P03956).
T2 construct: 19 kD truncated collagenase-1 (MMP-1)
T2 sequence (P03956 101-269 limits assumed): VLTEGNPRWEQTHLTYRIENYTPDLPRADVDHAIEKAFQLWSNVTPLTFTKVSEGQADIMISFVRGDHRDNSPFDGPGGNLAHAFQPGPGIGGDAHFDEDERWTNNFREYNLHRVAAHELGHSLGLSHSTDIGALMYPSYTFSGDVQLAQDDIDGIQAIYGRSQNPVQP
Put plainly: Matrix Metalloprotease Inhibition, Collagenase-1. It is filed as biochemical. As to conditions: 500 pM enzyme, 10 μM fluorogenic substrate, pH=7.6; approximate IC50 equivalent to Ki ([S]<<Km). Here is the method: as §2

[13] abbreviates: MonoMac 6 membrane preparation, 200 nM radiolabeled substrate, pH=7.5, 1 hr, approximate IC50 equivalent to Ki ([S]<<Km), read-out: TNFα Converting Enzyme Ki.

Chain of stromelysin-1 (MMP-3) (P08254 100-477): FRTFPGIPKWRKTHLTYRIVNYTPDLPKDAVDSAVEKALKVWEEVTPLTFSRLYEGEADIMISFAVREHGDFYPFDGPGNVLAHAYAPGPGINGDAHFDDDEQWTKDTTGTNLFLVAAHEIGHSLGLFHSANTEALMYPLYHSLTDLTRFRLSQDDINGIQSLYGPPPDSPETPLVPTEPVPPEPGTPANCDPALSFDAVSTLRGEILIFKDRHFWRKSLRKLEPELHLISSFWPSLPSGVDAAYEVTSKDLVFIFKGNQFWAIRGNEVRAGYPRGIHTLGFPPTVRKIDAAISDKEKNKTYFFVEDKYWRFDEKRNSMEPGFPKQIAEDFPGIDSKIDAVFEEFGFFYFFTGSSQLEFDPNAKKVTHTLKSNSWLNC
T1 sequence (P78536 215-824): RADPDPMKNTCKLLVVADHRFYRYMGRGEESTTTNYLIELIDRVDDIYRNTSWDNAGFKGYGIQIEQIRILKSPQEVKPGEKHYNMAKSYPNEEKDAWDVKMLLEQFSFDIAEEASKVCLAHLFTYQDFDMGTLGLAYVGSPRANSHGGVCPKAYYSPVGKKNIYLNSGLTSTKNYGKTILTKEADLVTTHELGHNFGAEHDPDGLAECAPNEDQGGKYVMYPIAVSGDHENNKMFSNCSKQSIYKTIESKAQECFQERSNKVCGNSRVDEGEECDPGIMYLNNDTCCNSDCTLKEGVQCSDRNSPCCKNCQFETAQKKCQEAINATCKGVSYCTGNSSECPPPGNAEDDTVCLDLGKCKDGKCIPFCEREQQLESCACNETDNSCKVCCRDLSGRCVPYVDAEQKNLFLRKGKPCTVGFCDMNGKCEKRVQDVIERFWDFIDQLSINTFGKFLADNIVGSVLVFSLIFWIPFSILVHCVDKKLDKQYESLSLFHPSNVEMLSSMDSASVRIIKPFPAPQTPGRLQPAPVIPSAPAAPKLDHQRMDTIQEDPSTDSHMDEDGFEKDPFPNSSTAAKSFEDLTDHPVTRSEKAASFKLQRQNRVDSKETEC

In the case of `CNC(=O)[C@@H](NC(=O)[C@H](CCCc1ccccc1)[C@H](C)N(O)C=O)C(C)(C)C` [Example 1], the “percent inhibition of tumor growth” value in experiment [1] is reported as “++ (51-75% Inhibition)”; in [2], “+ (26-50% Inhibition)”; in experiment [7] it was “++ (51-75% Inhibition)”; in [8], “++++ (>100% Inhibition (Tumor Regression))”; in experiment [9] it was “++ (51-75% Inhibition)”; in experiment [11], “+ (26-50% Inhibition)”. For the same compound, the pKi – broadly, the negative decadic logarithm of the Ki, by convention in mol/L – in [3] is 8.30 to 9.30; in experiment [4], 8.30 to 9.30; in experiment [6] it was 6.30 to 7.30; in experiment [10], 6.30 to 7.30; in [12], 6.30 to 7.30. Moreover, the pIC50 (as a rule, the negative decadic logarithm of the IC50, by convention in mol/L) in [5] was < 6.30.

As for `CNC(=O)[C@@H](NC(=O)[C@H](CCCc1ccc(Cl)cc1)[C@H](C)N(O)C=O)C(C)(C)C` [Example 2], the pKi was 9.30 to 12.00 in [3]; 9.30 to 12.00 in experiment [4]; < 6.30 in experiment [6] (setting [13]); 7.30 to 8.30 in experiment [10]; 7.30 to 8.30 in experiment [12].

For the compound `CNC(=O)[C@@H](NC(=O)[C@H](CCCc1cccs1)[C@H](C)N(O)C=O)C(C)(C)C` [Example 3], the pKi was 8.30 to 9.30 in [3]; 9.30 to 12.00 in [4]; 6.30 to 7.30 in experiment [6] (setting [13]); 6.30 to 7.30 in experiment [10]; 7.30 to 8.30 in [12].

For the compound `CC(C)[C@@H]([C@@H](CCCc1ccc(Cl)cc1)C(=O)N[C@H](C(=O)NCc1cccnc1)C(C)(C)C)N(O)C=O` [Example 9], the pKi in experiment [3] was 8.30 to 9.30; in experiment [4] it was 9.30 to 12.00; in [6] (setting [13]), 6.30 to 7.30; in [10], 7.30 to 8.30; in experiment [12], 6.30 to 7.30.

`C[C@@H]([C@@H](CCCc1ccc(Cl)cc1)C(=O)N[C@H](C(=O)NCc1ccccn1)C(C)(C)C)N(O)C=O` [Example 20, (2R,3S)-3-(Formylhydroxyamino)-2-(3-(4-chlorophenyl)-1-propyl)-butanoic Acid [(1S)-2,2-Dimethyl-(1-(2-pyridylmethyl)carbamoyl)-1-propyl]amide]: the pKi is 8.30 to 9.30 in experiment [3]; 9.30 to 12.00 in [4]; < 6.30 in experiment [6] (setting [13]); 6.30 to 7.30 in experiment [10]; 6.30 to 7.30 in experiment [12].

In the case of `C[C@@H]([C@@H](CCCc1ccc(Cl)cc1)C(=O)N[C@H](C(=O)NCCCN1CCOCC1)C(C)(C)C)N(O)C=O` [Example 24, (2R,3S)-3-(Formylhydroxyamino)-2-(3-(4-chlorophenyl)-1-propyl)-butanoic Acid[(1S)-2,2-Dimethyl-(1-(3-(4-morpholino)-1-propyl)carbamoyl)-1-propyl]amide], the pKi in experiment [3] was 8.30 to 9.30; in experiment [4] it was 9.30 to 12.00; in experiment [6] (setting [13]), 6.30 to 7.30; in experiment [10], 7.30 to 8.30; in experiment [12], 6.30 to 7.30.

For `CNC(=O)[C@@H](NC(=O)[C@H](CCCc1ccc(C)cc1)[C@H](C)N(O)C=O)C(C)(C)C` [Example 52, (2R,3S)-3-(Formylhydroxyamino)-2-(3-(4-methylphenyl)-1-propyl)butanoic Acid [(1S)-2,2-Dimethyl-(1-methylcarbamoyl)-1-propyl]amide], the pKi in experiment [3] was 8.30 to 9.30; in experiment [4], 8.30 to 9.30; in experiment [6] (setting [13]) it was 6.30 to 7.30; in experiment [10], 7.30 to 8.30; in [12], 6.30 to 7.30.

In the case of `CNC(=O)[C@@H](NC(=O)[C@H](CCCCCc1ccccc1)[C@H](C)N(O)C=O)C(C)(C)C` [Example 61, (2R,3S)-3-(Formylhydroxyamino)-2-(5-phenyl-1-pentyl)butanoic Acid [(1S)-2,2-Dimethyl-(1-methylcarbamoyl)-1-propyl]amide], the pKi in experiment [3] is 8.30 to 9.30; in experiment [4] it was 8.30 to 9.30; in [6] (setting [13]), < 6.30; in experiment [10], 7.30 to 8.30; in experiment [12], 6.30 to 7.30.
